Results: patent publication US9404140B1, “Patterned cardiomyocyte culture on microelectrode array” (The University of Central Florida Research Foundation, Inc., priority 2009, dated 2016)
“Also recorded” adds a separate entry of the source.

System: patterned neonatal rat cardiomyocytes
Experiment: Multielectrode extracellular recordings from patterned spontaneously beating cardiomyocytes on MEAs (drug effect)
Assay type: cell-based
Method: MEAs containing 60, 10 μm diameter electrodes (Multichannel Systems, Germany) were cleaned by soaking the arrays in a detergent solution for 2 hours followed by sonication for 10 minutes. The arrays were then oxygen plasma cleaned for 20 minutes. Surface modification was completed by incubation of the MEAs in a 3 mM PEG silane, 2-[Methoxypoly(ethyleneoxy)propyl]trimethoxysilane (MW=460-590, Gelest), solution in toluene, with 37% concentrated HCL added to achieve a final value of 0.08% (0.8 ml HCL/L), for 45 minutes at room temperature. The arrays were then rinsed once in toluene, twice in ethanol, twice in water and sonicated in water for 2 minutes to remove the non-covalently linked material. The arrays were air dried with nitrogen and stored in a dessicator overnight.
The MEAs were patterned by laser ablation photolithography using a deep UV (193 nm) excimer laser (Lambda Physik) at a pulse power of 230 mW and a frequency of 10 Hz for 45 seconds through a quartz photomask (Bandwidth foundry, Eveleigh, Australia). The arrays were sterilized using 70% isopropanol and then incubated with 5 μg/ml of fibronectin in a Phosphate buffered solution (Invitrogen) for 20 minutes at room temperature. The solution was removed and the surface was first rinsed with PBS, followed by the plating medium, and then dried before the cells were plated.
The neonatal rat cardiomyocyte culture was prepared using the cardiac isolation kit from Worthington[40]. All animal work was approved by the UCF IACUC and followed NIH guidelines. Briefly, two day-old rat pups were euthanized in a precharged CO2 chamber. Hearts were dissected and minced in ice cold Hanks balanced salt solution (HBSS). Cardiac myocytes were dissociated by incubation of the hearts in trypsin (100 μg/ml in HBSS) for 16 hours at 2-8° C. The hearts in the trypsin solution were briefly warmed with a trypsin inhibitor before adding collegenase (300 units/ml in L-15 medium) for 45 minutes in a water bath at 37° C. followed by mechanical trituration. The cell solution was filtered to remove any remaining tissue and centrifuged at 50 g for 5 minutes at 22° C. The cells were resuspended in high glucose Dulbecco's modified eagle medium (DMEM, Gibco/Invitrogen) supplemented with 10 ml Fetal Bovine Serum (Gibco/Invitrogen) and 1 ml penicillin streptomycin (Gibco/Invitrogen), preplated in Petri dishes and incubated at 37° C. and in 5% CO2 for 45 minutes. This was necessary to eliminate the fibroblasts. The supernatant from the Petri dishes was centrifuged at 50 g for 5 min at 22° C. The cells were then resuspended in the plating medium. The serum-free plating medium consisted of: 100 ml Ultraculture medium (Bio Whittaker Cambrex) supplemented with 10 ml B27, 1 ml L-glutamine (Gibco/Invitrogen), 1 ml Penicillin Streptomycin, 0.375 g dextrose (Fisher Scientific) in 800 μl water, 1 ml non-essential amino acids and 1 ml of Hepes buffer (Gibco/Invitrogen)[41]. Additional growth factors were also added to improve cell survival in the serum-free conditions. They included 0.1 μg/ml of L-thyroxine, 10 ng/ml of Epidermal growth factor (Sigma-aldrich) and 0.5 μg/ml of Hydrocortisone (BD biosciences). Cells were plated at a density of 1000 cells/mm^2 on the MEAs. The medium was changed 24 hours after plating. Subsequent changing of the medium was performed every third day.
The cardiac myocytes were cultured on patterned metal MEAs (Planar 10 μm electrodes, 200 μm separation, Multichannel-systems). A 60 channel amplifier (MEA1040, Multichannel-systems) was used to record electrical activity from the spontaneously beating cardiac cells. The same electrodes were also used for stimulation utilizing a stimulus generator (STG 1002, Multichannel systems). The cells were stimulated utilizing 500 mV, 1 ms wide bipolar pulses at 2 Hz. The recording medium was the same as the plating medium with the pH adjusted to 7.3 using HEPES buffer. […]

[1] = 2 μM Sparfloxacin in recording medium

| Field potential (FP) length [1] | Time to significant change in the spontaneous beating frequency [1] [min] | SMILES | Conduction velocity (CV) (50 μM 1-Heptanol in recording medium, spontaneously beating cells, n=4 MEAs, before treatment 0.197±0.014 m/s) [m/s] | Time for propagation of the excitation wave versus value before treatment (50 μM 1-Heptanol, FPs recorded at 15 minute intervals) | Effect on CV in the cardiac myocyte monolayers (in words) (1-Heptanol, 50 μM) | Synchronicity of the beating cells (1-Heptanol, 50 μM) | Conduction velocity (CV), propagation of excitation after the drug (1-Heptanol, between electrodes 84 and 52 of the pattern, before drug 0.197 m/sec, FIG. 5) [m/sec] | Beating pattern, synchrony and conduction (in words) [1] |
| --- | --- | --- | --- | --- | --- | --- | --- | --- |
|  |  | CCCCCCCO [1-Heptanol] | 0.0066±0.0004 | significantly increased | drastically decreased the CV in the cardiac myocyte monolayers without completely blocking the conduction | maintaining the synchronicity of the beating cells | 0.0066 |  |
| increased FP length | ≤ 25 | C[C@@H]1CN(c2c(F)c(N)c3c(=O)c(C(=O)O)cn(C4CC4)c3c2F)C[C@H](C)N1 [Sparfloxacin] |  |  |  |  |  | burst like activity with higher intra-burst frequencies and no synchrony between electrodes; also recorded: non-synchronous contractions similar to fibrillation and burst-like beating activity; also recorded: caused fibrillations which initiated a complete conduction block |
